Experimental data as given in patent US7544768B2, “Peptides for inducing apoptosis in tumor cells” (Deutsches Krebsforschungszentrum Stiflung des Offentlichen …, priority 2002, dated 2009).

What was measured:
Test in all cases: Colony formation assay, transfected expression vectors
Assay type in all cases: cell-based
[1] = test system: livin-expressing HeLa cells; settings: nucleic acid coding for peptide transfected; FIG. 3
Source text: (§1) Expression vectors bearing the nucleic acid coding for peptide number 75 (corresponds to SEQ ID No: 127 or number 41 of TABLE 2) or bearing the nucleic acid coding for control peptide were introduced in HeLa cells and livin-negative C33a cells. The cells were selected for stable transfectants.
(§2) The nucleic acids coding for the peptides of TABLE 3 were cloned into mammalian expression vectors and transfected into different cells to observe their further growth. By using a HIS-tag it was possible to verify that all peptide sequences could be expressed.

[2] = test system: livin-negative C33a cells; settings: nucleic acid coding for peptide transfected; FIG. 3
Source text: as §1, §2

MeWo (melanoma cells) = settings: nucleic acid coding for peptide transfected
Source text: as §2

Substance: GSRCIRRRISILFFVFRVLRSRRVLRSAEIYES* (randomized peptide that bind to particular IAPs) [compound 75]
- growth of livin-expressing HeLa cells [1]: blocked the growth
- growth of livin-negative C33a cells [2]: not affected
- growth of MeWo (melanoma cells) (MeWo (melanoma cells)): blocked the growth
